The source made the active and inactive calls.
Columns and labels:
Assay type in all cases: functional
[1] = target: Mitochondrial peptide methionine sulfoxide reductase (Bos taurus, UniProt P54149); experiment: Absorbance-based biochemical high throughput dose response assay for activators of Methionine sulfoxide reductase A (MsrA).
[2] = target: T1, Sentrin-specific protease 8 (Homo sapiens, UniProt Q96LD8)
T1 sequence (Q96LD8 whole entry): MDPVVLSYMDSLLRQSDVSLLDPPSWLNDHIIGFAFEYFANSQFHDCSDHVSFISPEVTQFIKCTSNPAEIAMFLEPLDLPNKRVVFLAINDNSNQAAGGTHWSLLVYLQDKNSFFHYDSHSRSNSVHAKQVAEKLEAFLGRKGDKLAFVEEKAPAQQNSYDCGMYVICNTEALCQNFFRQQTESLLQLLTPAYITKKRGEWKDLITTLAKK

[3] = target: Glycogen synthase kinase-3 beta (Homo sapiens, UniProt P49841);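 further: value comes from a broad kinome profiling panel, with GSK3B as the panel member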
[4] = target: Platelet-derived growth factor receptor beta (Homo sapiens, UniProt P09619);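 further: value comes from a kinome panel, with PDGFRB tested as one panel member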
[5] = target: Serine/threonine-protein kinase Chk1 (Homo sapiens, UniProt O14757);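 further: measured as one member of a kinome-wide kinase profiling panel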
[6] = target: T2, Serine/threonine-protein kinase TBK1 (Homo sapiens, UniProt Q9UHD2); experiment: Navigating the Kinome. Panel member name: TBK1
T2 sequence (Q9UHD2 whole entry): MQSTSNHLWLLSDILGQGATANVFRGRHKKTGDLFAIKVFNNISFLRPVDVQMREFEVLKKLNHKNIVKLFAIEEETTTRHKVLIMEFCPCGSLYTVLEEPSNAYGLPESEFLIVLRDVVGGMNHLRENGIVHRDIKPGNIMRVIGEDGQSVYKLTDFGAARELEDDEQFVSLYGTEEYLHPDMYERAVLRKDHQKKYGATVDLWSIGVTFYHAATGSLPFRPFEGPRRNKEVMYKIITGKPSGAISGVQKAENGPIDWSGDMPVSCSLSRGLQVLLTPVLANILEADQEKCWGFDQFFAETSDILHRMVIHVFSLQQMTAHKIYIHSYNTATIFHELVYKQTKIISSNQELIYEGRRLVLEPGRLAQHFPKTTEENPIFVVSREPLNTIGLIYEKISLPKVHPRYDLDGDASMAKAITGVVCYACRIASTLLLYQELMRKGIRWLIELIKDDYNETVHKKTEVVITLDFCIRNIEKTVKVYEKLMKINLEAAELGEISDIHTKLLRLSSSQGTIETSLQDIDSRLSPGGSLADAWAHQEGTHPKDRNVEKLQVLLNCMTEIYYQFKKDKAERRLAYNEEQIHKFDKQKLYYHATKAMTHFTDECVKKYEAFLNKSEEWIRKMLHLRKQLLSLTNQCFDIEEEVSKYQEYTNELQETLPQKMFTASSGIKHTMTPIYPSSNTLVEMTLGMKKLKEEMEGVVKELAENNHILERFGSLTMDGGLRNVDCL

[7] = target: Mitogen-activated protein kinase 14 (Homo sapiens, UniProt Q16539);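 further: part of a kinome-wide panel, MAPK14 entry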
[8] = target: T3, Serine/threonine-protein kinase Nek2 (Homo sapiens, UniProt P51955)
T3 sequence (P51955 whole entry): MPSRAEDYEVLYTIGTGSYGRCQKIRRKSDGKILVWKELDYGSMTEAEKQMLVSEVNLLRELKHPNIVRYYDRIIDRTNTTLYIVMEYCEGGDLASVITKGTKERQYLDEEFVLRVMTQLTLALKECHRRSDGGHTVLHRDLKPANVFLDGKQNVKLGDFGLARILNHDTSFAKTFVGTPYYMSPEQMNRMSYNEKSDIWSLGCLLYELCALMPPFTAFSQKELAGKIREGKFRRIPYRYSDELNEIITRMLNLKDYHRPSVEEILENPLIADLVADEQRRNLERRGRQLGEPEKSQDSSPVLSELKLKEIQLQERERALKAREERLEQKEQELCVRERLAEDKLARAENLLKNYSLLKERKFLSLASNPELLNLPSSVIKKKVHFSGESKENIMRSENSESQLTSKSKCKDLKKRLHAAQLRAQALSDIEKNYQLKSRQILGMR

[9] = target: Tyrosine-protein kinase Fyn (Homo sapiens, UniProt P06241)
[10] = target: LIM domain kinase 1 (Homo sapiens, UniProt P53667); experiment: Navigating the Kinome. Panel member name: LIMK1
[11] = target: Tyrosine-protein kinase ABL1 (Homo sapiens, UniProt P00519)
[12] = target: Tyrosine-protein kinase Lck (Homo sapiens, UniProt P06239);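 further: lck was assayed as one member of a kinase panel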
[13] = target: Tyrosine-protein kinase BTK (Homo sapiens, UniProt Q06187)
[14] = target: Aurora kinase B (Homo sapiens, UniProt Q96GD4)
[15] = target: Mitogen-activated protein kinase 9 (Homo sapiens, UniProt P45984);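 further: value from a kinome panel profiling assay, MAPK9 panel entry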
[16] = target: Maternal embryonic leucine zipper kinase (Homo sapiens, UniProt Q14680)
[17] = target: Cyclin-dependent kinase 2 (Homo sapiens, UniProt P24941);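 further: CDK2 measured as one member of a broad kinome profiling panel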
[18] = target: Casein kinase I isoform alpha (Homo sapiens, UniProt P48729)
[19] = target: Serine/threonine-protein kinase 3 (Homo sapiens, UniProt Q13188);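 further: measured as one member of a kinome-wide kinase panel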
[20] = target: Serine/threonine-protein kinase 17A (Homo sapiens, UniProt Q9UEE5)

Chain of Glycogen synthase kinase-3 beta (P49841 whole entry): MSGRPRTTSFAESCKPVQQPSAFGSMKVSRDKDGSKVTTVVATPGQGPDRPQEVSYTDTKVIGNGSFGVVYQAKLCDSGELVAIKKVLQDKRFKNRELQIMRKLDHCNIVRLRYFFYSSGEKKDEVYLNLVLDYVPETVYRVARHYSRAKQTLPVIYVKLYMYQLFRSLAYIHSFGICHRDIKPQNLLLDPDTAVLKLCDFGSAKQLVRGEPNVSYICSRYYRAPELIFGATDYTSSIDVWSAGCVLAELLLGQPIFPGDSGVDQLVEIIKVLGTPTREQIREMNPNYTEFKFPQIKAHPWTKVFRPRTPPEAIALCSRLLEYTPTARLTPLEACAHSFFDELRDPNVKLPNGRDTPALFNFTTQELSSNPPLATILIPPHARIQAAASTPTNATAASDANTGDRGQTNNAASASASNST
Chain of Tyrosine-protein kinase BTK (Q06187 whole entry): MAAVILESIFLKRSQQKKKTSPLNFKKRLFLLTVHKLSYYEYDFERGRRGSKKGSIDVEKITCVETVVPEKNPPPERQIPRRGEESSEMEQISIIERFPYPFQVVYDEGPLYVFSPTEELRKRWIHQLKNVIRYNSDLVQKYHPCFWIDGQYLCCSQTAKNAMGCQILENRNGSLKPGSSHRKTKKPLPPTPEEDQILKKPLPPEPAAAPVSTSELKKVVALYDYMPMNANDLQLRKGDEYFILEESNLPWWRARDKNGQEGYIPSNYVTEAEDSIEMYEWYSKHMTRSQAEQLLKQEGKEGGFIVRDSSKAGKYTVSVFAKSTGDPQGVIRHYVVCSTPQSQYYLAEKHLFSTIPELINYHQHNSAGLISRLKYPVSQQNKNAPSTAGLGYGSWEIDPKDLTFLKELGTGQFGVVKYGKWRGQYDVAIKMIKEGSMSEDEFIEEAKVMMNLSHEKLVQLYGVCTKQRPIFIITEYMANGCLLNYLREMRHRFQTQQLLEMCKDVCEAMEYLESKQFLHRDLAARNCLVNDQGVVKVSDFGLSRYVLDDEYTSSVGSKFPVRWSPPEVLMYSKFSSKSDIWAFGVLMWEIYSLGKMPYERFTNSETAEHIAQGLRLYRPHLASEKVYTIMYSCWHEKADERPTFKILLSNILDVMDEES
Chain of Tyrosine-protein kinase Fyn (P06241 whole entry, the tested form may be a part): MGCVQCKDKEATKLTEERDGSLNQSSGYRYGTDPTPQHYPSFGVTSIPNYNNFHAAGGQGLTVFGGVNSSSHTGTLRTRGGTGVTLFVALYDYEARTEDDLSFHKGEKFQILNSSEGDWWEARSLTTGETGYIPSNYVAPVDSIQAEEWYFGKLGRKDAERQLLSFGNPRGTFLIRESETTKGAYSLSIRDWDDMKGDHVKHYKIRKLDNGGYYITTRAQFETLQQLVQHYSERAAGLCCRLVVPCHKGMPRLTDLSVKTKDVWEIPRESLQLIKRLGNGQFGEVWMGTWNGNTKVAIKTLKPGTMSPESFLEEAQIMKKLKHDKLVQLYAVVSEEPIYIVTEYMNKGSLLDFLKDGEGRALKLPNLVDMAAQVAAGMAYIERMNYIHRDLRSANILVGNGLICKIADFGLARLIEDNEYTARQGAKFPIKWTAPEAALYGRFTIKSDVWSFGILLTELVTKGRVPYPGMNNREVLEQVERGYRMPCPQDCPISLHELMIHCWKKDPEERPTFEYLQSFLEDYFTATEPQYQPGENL
Chain of Aurora kinase B (Q96GD4 whole entry): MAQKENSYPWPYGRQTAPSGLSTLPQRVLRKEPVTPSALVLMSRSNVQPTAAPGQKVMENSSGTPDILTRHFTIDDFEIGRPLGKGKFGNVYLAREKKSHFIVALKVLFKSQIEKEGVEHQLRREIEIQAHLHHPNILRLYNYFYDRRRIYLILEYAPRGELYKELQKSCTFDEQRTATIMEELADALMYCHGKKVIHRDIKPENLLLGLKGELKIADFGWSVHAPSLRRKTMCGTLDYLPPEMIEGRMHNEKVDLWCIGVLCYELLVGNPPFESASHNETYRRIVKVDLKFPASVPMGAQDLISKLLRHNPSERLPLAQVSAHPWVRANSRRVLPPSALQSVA
Chain of Serine/threonine-protein kinase Chk1 (O14757 whole entry): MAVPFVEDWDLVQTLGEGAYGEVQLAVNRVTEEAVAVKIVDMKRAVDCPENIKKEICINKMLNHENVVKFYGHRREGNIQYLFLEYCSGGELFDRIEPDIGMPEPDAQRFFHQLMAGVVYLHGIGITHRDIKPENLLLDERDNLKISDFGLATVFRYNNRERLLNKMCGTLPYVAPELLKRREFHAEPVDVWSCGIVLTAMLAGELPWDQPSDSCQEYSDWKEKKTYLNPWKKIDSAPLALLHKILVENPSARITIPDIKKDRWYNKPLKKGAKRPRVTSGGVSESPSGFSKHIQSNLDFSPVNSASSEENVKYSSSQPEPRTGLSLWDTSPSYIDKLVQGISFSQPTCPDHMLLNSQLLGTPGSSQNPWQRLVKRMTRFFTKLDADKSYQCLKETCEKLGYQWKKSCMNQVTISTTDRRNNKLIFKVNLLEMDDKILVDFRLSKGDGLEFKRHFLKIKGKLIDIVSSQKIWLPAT
Chain of Tyrosine-protein kinase ABL1 (P00519 whole entry): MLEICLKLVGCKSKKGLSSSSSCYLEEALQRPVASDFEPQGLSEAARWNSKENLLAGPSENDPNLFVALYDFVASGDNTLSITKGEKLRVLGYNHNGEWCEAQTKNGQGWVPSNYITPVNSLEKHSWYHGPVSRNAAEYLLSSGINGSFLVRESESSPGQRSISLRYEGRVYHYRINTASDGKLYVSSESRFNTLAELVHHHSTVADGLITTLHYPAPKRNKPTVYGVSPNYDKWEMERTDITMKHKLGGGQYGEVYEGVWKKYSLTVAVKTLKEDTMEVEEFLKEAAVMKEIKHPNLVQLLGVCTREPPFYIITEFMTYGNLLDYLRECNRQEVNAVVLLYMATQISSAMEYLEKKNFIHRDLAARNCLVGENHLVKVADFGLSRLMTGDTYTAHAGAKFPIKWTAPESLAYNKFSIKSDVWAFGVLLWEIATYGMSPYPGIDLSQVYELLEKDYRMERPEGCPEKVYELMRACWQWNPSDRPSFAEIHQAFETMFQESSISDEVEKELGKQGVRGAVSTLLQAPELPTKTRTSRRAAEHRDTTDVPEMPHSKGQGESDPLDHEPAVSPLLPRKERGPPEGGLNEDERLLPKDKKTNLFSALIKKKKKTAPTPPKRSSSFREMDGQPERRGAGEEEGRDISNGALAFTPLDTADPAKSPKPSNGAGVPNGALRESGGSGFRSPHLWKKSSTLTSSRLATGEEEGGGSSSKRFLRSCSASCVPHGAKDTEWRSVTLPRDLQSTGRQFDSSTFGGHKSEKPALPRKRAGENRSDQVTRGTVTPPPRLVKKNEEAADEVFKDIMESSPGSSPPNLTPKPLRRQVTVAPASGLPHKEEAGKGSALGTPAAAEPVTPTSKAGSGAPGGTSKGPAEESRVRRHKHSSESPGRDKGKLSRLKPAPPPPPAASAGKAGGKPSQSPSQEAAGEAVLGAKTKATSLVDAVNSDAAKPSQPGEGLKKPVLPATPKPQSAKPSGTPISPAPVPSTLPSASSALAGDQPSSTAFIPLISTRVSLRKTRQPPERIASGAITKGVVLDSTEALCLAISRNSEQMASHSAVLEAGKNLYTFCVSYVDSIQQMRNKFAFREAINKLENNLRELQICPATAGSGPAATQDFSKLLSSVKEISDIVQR
Chain of Platelet-derived growth factor receptor beta (P09619 whole entry): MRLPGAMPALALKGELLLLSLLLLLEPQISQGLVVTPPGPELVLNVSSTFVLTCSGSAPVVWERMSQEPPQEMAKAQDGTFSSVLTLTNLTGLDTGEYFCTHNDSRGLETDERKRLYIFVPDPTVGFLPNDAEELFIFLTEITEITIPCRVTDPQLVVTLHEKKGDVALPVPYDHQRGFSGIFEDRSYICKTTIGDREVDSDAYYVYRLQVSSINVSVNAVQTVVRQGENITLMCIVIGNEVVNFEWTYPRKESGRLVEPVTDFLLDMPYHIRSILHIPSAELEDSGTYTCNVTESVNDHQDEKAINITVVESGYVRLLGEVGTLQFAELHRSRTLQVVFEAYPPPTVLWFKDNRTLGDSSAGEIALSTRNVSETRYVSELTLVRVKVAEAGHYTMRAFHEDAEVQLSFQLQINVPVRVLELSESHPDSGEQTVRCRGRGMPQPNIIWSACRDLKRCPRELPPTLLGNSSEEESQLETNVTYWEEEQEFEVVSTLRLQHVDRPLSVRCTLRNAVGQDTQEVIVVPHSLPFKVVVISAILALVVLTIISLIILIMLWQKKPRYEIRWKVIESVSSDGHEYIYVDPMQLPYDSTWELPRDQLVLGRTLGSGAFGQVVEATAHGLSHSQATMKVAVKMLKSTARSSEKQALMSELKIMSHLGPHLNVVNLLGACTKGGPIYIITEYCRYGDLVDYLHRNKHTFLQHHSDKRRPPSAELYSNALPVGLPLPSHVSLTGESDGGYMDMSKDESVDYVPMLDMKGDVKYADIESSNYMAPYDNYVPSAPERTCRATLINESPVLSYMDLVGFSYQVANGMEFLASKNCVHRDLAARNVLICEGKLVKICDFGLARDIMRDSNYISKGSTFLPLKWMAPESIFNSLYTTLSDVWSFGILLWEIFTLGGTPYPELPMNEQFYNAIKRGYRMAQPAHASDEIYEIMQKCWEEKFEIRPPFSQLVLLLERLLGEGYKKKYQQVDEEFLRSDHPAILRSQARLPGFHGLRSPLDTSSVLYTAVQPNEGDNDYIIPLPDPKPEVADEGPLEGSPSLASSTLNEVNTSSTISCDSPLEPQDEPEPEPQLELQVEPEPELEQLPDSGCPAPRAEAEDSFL
Chain of Mitogen-activated protein kinase 14 (Q16539 whole entry): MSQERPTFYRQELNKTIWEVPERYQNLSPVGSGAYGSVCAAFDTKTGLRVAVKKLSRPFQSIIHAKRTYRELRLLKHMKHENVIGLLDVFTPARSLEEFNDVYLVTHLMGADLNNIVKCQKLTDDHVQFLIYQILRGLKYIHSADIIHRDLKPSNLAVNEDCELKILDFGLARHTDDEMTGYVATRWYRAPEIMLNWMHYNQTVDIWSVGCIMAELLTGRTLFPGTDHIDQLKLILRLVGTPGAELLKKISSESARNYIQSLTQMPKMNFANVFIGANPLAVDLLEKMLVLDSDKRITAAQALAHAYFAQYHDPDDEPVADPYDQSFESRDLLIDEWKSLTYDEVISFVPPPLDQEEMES

Ki [3] | Ki [4] | Ki [5] | Ki [6] | Ki [7] | Ki [8] | Ki [9] | Ki [10] | Ki [11] | Ki [12] | Ki [13] | Ki [14] | Ki [15] | Ki [16] | Ki [17] | Ki [18] | Ki [19] | Ki [20] | SMILES | EC50 [1] | IC50 [2]
– | – | – | – | – | – | – | – | – | – | – | – | – | – | – | – | – | – | c1ccc2nc3cc4[nH]cnc4cc3nc2c1 | 53 µM (inactive) | 12.5 µM (active)
> 3.98 µM (inactive) | > 2 µM (inactive) | > 3.16 µM (inactive) | > 3.16 µM (inactive) | > 3.98 µM (inactive) | > 3.16 µM (inactive) | > 6.31 µM (inactive) | > 3.16 µM (inactive) | > 2.51 µM (inactive) | > 6.31 µM (inactive) | > 6.31 µM (inactive) | > 3.98 µM (inactive) | > 3.98 µM (inactive) | – | – | – | – | – | COc1cccc(C(C)NC(=O)c2sc(-c3ccncc3)nc2C)c1 (stereo not given) | – | –
> 3.98 µM (inactive) | – | – | > 3.16 µM (inactive) | > 3.98 µM (inactive) | – | > 6.31 µM (inactive) | – | – | – | > 6.31 µM (inactive) | – | > 3.98 µM (inactive) | > 2 µM (inactive) | > 3.16 µM (inactive) | 0.794 µM (active) | > 3.16 µM (inactive) | > 3.16 µM (inactive) | CCCCC(=O)Nc1cc(-c2c[nH]c3ncccc23)cc(Cl)n1 | – | –
> 2.51 µM (inactive) | > 2 µM (inactive) | > 3.16 µM (inactive) | > 3.16 µM (inactive) | – | > 3.16 µM (inactive) | > 6.31 µM (inactive) | > 3.16 µM (inactive) | > 2.51 µM (inactive) | > 5.01 µM (inactive) | > 6.31 µM (inactive) | > 3.98 µM (inactive) | – | > 2 µM (inactive) | – | 1 µM (active) | > 2.51 µM (inactive) | – | Oc1ccc(-c2nc(-c3ccncc3)c(-c3ccc(F)cc3)[nH]2)cc1 [SB-202190] | – | –

— ChEMBL document CHEMBL1201862, “PubChem BioAssay data set” (2004)
